From patent publication US12091404B2 (Gilead Sciences, Inc., priority 2021, dated 2024)

Each compound was assayed against T1, GLP-1R (Homo sapiens, UniProt P43220) (assay: GLP-1R Activation - cAMP Assay 2). Conditions: not given.
Assay type: cell-based
Protocol: GLP-1R Activation—cAMP Assay 2 GLP-1R activation by small molecule agonists is quantified by measuring cAMP increase in CHO cells stably expressing GLP-1R (MultiSpan product #C1267-1a). 50 nL of agonists are pre-spotted in a 10-point dose response onto 384-well plate (Corning product #CL3826) using the Labcyte Echo System. […] The cells are then incubated for 30 minutes at 37° C., 5% CO2. cAMP concentration increase is then detected using Cisbio's cAMP Gs Dynamic Kit (product #62AM4PEC) according to the manufacturer's protocol. The response is plotted against the log of the agonist concentration and fitted to a sigmoidal equation to determine the EC50.

T1 sequence (P43220 24-463): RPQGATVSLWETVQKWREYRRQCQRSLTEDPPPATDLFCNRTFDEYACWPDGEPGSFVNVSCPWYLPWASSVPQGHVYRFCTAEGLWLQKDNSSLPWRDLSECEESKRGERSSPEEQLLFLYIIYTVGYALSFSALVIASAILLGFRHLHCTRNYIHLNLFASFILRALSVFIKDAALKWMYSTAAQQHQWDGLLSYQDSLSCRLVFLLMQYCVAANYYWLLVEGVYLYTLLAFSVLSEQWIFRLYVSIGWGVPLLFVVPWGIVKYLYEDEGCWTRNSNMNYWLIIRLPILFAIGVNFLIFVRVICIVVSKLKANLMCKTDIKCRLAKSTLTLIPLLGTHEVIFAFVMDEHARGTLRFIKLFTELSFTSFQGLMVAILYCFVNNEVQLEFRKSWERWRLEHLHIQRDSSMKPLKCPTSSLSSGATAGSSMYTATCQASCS

Q: `N#Cc1ccc(COc2cccc(C3CCN(Cc4nc5ccc(C(=O)O)cc5n4C[C@@H]4CCO4)CC3)n2)s1` [Example 6, (S)-2-((4-(6-((5-cyanothiophen-2-yl)methoxy)pyridin-2-yl)piperidin-1-yl)methyl)-1-(oxetan-2-ylmethyl)-1H-benzo[d]imidazole-6-carboxylic acid] was tested. Which EC50 did it give?
A: 0.9 nM

Same assay, conditions: cAMP increase in CHO cells stably expressing GLP-1R; pre-spotted agonists, assay buffer or 100% Human Plasma (not stated which), 30 minutes at 37° C.; read-out: GLP-1R Activation- Assay 2 EC50 (nm)

Q: For `O=C(O)c1ccc2nc(CN3CCC(c4cccc(OCc5ncc(C(F)(F)F)s5)n4)CC3)n(C[C@@H]3CCO3)c2c1` [Example 14, (S)-1-(oxetan-2-ylmethyl)-2-((4-(6-((5-(trifluoromethyl)thiazol-2-yl)methoxy)pyridin-2-yl)piperidin-1-yl)methyl)-1H-benzo[d]imidazole-6-carboxylic acid], which EC50 is on record?
A: 1.8 nM

Q: `N#Cc1cnc(COc2cccc(C3CCN(Cc4nc5ccc(C(=O)O)cc5n4C[C@@H]4CCO4)CC3)n2)s1` [Example 17, (S)-2-((4-(6-((5-cyanothiazol-2-yl)methoxy)pyridin-2-yl)piperidin-1-yl)methyl)-1-(oxetan-2-ylmethyl)-1H-benzo[d]imidazole-6-carboxylic acid] was tested. Which EC50 did it give?
A: 24.1 nM

Q: For `O=C(O)c1ccc2nc(Cc3cc(F)c(-c4cccc(OCc5cc(C(F)(F)F)cs5)n4)cc3F)n(C[C@@H]3CCO3)c2c1` [Example 10, 2-[[2,5-difluoro-4-[6-[[4-(trifluoromethyl)-2-thienyl]methoxy]-2-pyridyl]phenyl]methyl]-3-[[(2S)-oxetan-2-yl]methyl]benzimidazole-5-carboxylic acid], which EC50 is on record?
A: 0.4 nM

Q: For `O=C(O)c1ccc2nc(CN3CCC(c4cccc(OCc5ccn(C(F)F)n5)n4)CC3)n(C[C@@H]3CCO3)c2c1` [Example 8, (S)-2-((4-(6-((1-(difluoromethyl)-1H-pyrazol-3-yl)methoxy)pyridin-2-yl)piperidin-1-yl)methyl)-1-(oxetan-2-ylmethyl)-1H-benzo[d]imidazole-6-carboxylic acid], which EC50 is on record?
A: 21.5 nM

Q: For `Cn1cc(C#Cc2ccc(COc3cccc(C4CCN(Cc5nc6ccc(C(=O)O)cc6n5C[C@@H]5CCO5)CC4)n3)s2)cn1` [Example 9, 2-[[4-[6-[[5-[2-(1-methylpyrazol-4-yl)ethynyl]-2-thienyl]methoxy]-2-pyridyl]-1-piperidyl]methyl]-3-[[(2S)-oxetan-2-yl]methyl]benzimidazole-5-carboxylic acid], which EC50 is on record?
A: 3.3 nM

Q: Which EC50 does the source give for `NC(=O)c1ccc(COc2cccc(C3CCN(Cc4nc5ccc(C(=O)O)cc5n4C[C@@H]4CCO4)CC3)n2)s1` [Example 7, (S)-2-((4-(6-((5-carbamoylthiophen-2-yl)methoxy)pyridin-2-yl)piperidin-1-yl)methyl)-1-(oxetan-2-ylmethyl)-1H-benzo[d]imidazole-6-carboxylic acid] here?
A: 36.5 nM

Q: Which EC50 does the source give for `O=C(O)c1ccc2nc(CN3CCC(c4cccc(OCc5cc(C(F)(F)F)cs5)n4)CC3)n(C[C@@H]3CCO3)c2c1` [Example 16, (S)-1-(oxetan-2-ylmethyl)-2-((4-(6-((4-(trifluoromethyl)thiophen-2-yl)methoxy)pyridin-2-yl)piperidin-1-yl)methyl)-1H-benzo[d]imidazole-6-carboxylic acid] here?
A: 4.1 nM

Q: Which EC50 does the source give for `Cn1ccc(COc2cccc(C3CCN(Cc4nc5ccc(C(=O)O)cc5n4C[C@@H]4CCO4)CC3)n2)n1` [Example 5, (S)-2-((4-(6-((1-methyl-1H-pyrazol-3-yl)methoxy)pyridin-2-yl)piperidin-1-yl)methyl)-1-(oxetan-2-ylmethyl)-1H-benzo[d]imidazole-6-carboxylic acid] here?
A: > 100 nM

Q: `O=C(O)c1ccc2nc(CN3CCC(c4cccc(OCc5nc(C(F)(F)F)cs5)n4)CC3)n(C[C@@H]3CCO3)c2c1` [Example 15, (S)-1-(oxetan-2-ylmethyl)-2-((4-(6-((4-(trifluoromethyl)thiazol-2-yl)methoxy)pyridin-2-yl)piperidin-1-yl)methyl)-1H-benzo[d]imidazole-6-carboxylic acid] was tested. Which EC50 did it give?
A: 5.2 nM

What follows are compounds tested against T1, GLP-1R (assay: GLP-1R Activation - cAMP Assay 1). Conditions: cAMP increase in CHO cells stably expressing GLP-1R; 10-point dose response, 30 minutes incubation at 37° C.
Assay type: cell-based
Protocol: GLP-1R Activation—cAMP Assay 1
GLP-1R activation by a compound of the present disclosure was quantified by measuring cAMP increase in CHO cells stably expressing GLP-1R (MultiSpan product #C1267-1a). The cells were harvested and plated in growth medium (DMEM/F-12 (Corning product #10-090-CV) supplemented with 10% FBS (HyClone product #SH30071-03), penicillin/streptomycin (Corning product #30-002CI) and 10 µg/ml puromycin (Gibco product #A11138-03)) at 1,000 cells/well in a 384-well plate (Greiner product #781080). The cells were then incubated overnight at 37° C., 5% CO2. The next day, the medium was removed and the cells were washed with DPBS (Corning product #21-031-CM) before adding the assay medium (HBSS, Corning product #21-023-CV) with 20 mM Hepes (Gibco product #15630-080) and 0. 1% BSA (Rockland Immunochemicals product #BSA-1000)). Following the medium change, the cells were incubated for 1 hour at 37° C., 5% CO2. The tested GLP-1 compound was added to the cells in a 10-point dose response followed by a 30 minutes incubation at 37° C., 5% CO2. cAMP concentration increase was then detected using Cisbio's cAMP Gs Dynamic Kit (product #62AM4PEC) according to the manufacturer's protocol. The response was plotted against the log of the agonist concentration and fitted to a sigmoidal equation to determine the EC50.

Q: `COCCn1c(CN2CCC(c3cccc(OCc4cnn(C)n4)n3)CC2)nc2ccc(C(=O)O)cc21` [Example 20, 1-(2-methoxyethyl)-2-((4-(6-((2-methyl-2H-1,2,3-triazol-4-yl)methoxy)pyridin-2-yl)piperidin-1-yl)methyl)-1H-benzo[d]imidazole-6-carboxylic acid] was tested. Which EC50 did it give?
A: 4350 nM

Q: For `COCCn1c(CN2CCC(c3cccc(OCc4csc5cc(Cl)ccc45)n3)CC2)nc2ccc(C(=O)O)cc21` [Example 11, 2-((4-(6-((6-chlorobenzo[b]thiophen-3-yl)methoxy)pyridin-2-yl)piperidin-1-yl)methyl)-1-(2-methoxyethyl)-1H-benzo[d]imidazole-6-carboxylic acid], which EC50 is on record?
A: 156 nM

Q: How did the EC50 turn out when `COCCn1c(CN2CCC(c3cccc(OCc4nccs4)n3)CC2)nc2ccc(C(=O)O)cc21` [Example 18, 1-(2-methoxyethyl)-2-((4-(6-(thiazol-2-ylmethoxy)pyridin-2-yl)piperidin-1-yl)methyl)-1H-benzo[d]imidazole-6-carboxylic acid] was run?
A: 869 nM

Q: For `COCCn1c(CN2CCC(c3cccc(OCc4cscn4)n3)CC2)nc2ccc(C(=O)O)cc21` [Example 19, 1-(2-methoxyethyl)-2-((4-(6-(thiazol-4-ylmethoxy)pyridin-2-yl)piperidin-1-yl)methyl)-1H-benzo[d]imidazole-6-carboxylic acid], which EC50 is on record?
A: 5900 nM

Q: With `COCCn1c(CN2CCC(c3cccc(OCc4cnc(Cl)s4)n3)CC2)nc2ccc(C(=O)O)cc21` [Example 3, 2-[[4-[6-[(2-chlorothiazol-5-yl)methoxy]-2-pyridyl]-1-piperidyl]methyl]-3-(2-methoxyethyl)benzimidazole-5-carboxylic acid] as the compound, how does the EC50 read?
A: 307 nM

Q: With `COCCn1c(CN2CCC(c3cccc(OCc4ccsc4)n3)CC2)nc2ccc(C(=O)O)cc21` [Example 12, 1-(2-methoxyethyl)-2-((4-(6-(thiophen-3-ylmethoxy)pyridin-2-yl)piperidin-1-yl)methyl)-1H-benzo[d]imidazole-6-carboxylic acid] as the compound, how does the EC50 read?
A: 831 nM

Q: Which EC50 does the source give for `COCCn1c(CN2CCC(c3cccc(OCc4csc5ccccc45)n3)CC2)nc2ccc(C(=O)O)cc21` [Example 13, 2-((4-(6-(benzo[b]thiophen-3-ylmethoxy)pyridin-2-yl)piperidin-1-yl)methyl)-1-(2-methoxyethyl)-1H-benzo] here?
A: 197 nM

Q: For `COCCn1c(CN2CCC(c3cccc(OCc4sc(C#N)cc4F)n3)CC2)nc2ccc(C(=O)O)cc21` [Example 1, 2-((4-(6-((5-cyano-3-fluorothiophen-2-yl)methoxy)pyridin-2-yl)piperidin-1-yl)methyl)-1-(2-methoxyethyl)-1H-benzo[d]imidazole-6-carboxylic acid], which EC50 is on record?
A: 166 nM

Q: Which EC50 does the source give for `COCCn1c(CN2CCC(c3cccc(OCc4ccc(C#N)s4)n3)CC2)nc2ccc(C(=O)O)cc21` [Example 2, 2-((4-(6-((5-cyanothiophen-2-yl)methoxy)pyridin-2-yl)piperidin-1-yl)methyl)-1-(2-methoxyethyl)-1H-benzo[d]imidazole-6-carboxylic acid] here?
A: 47.3 nM

Q: Which EC50 does the source give for `COCCn1c(CN2CCC(c3cccc(OCc4nnc(Cl)s4)n3)CC2)nc2ccc(C(=O)O)cc21` [Example 4] here?
A: 294 nM
